Measurements from ChEMBL document CHEMBL5442175, “EUbOPEN Chemogenomics Library - PDSP Secondary Binding” (2024).
Structures can show the parent of a compound that is named as a salt. Blank lines part the entries; values can stand above or below the molecule they belong to.

Assays:
[1] = target: T1, 5-hydroxytryptamine receptor 3A (Homo sapiens, UniProt P46098); assay: (§1) PDSP Secondary Binding target: HTR3A - Compounds are tested at 10 uM concentration, plate are incubated at room temperature in the dark for 90 minutes. Reaction are stopped by vacuum filtration onto 0.3% polyethyleneimine soaked filter mats using Filtermate harvester. Scintillation cocktail is then melted onto microwave-dried filters on a hot plate and the radio activity is counted in Microbia counter.
T1 sequence (P46098 whole entry): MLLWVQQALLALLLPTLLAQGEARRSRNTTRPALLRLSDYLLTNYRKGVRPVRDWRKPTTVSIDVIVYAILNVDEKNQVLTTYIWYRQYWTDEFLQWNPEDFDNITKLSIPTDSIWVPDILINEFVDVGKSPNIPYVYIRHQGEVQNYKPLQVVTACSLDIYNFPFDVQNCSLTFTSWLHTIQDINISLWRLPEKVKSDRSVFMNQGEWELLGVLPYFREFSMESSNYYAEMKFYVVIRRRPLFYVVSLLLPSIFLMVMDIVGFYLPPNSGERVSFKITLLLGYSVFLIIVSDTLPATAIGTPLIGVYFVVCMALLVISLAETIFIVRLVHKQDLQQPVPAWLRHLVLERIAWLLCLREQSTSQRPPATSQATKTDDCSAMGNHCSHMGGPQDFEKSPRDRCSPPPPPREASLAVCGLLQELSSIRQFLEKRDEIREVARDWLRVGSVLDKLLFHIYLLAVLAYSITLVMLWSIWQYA

[2] = target: Beta-3 adrenergic receptor (Homo sapiens, UniProt P13945); assay: as §1, with “ADRB3” for “HTR3A”
[3] = target: T2, 5-hydroxytryptamine receptor 1A (Homo sapiens, UniProt P08908); assay: as §1, with “HTR1A” for “HTR3A”
T2 sequence (P08908 whole entry): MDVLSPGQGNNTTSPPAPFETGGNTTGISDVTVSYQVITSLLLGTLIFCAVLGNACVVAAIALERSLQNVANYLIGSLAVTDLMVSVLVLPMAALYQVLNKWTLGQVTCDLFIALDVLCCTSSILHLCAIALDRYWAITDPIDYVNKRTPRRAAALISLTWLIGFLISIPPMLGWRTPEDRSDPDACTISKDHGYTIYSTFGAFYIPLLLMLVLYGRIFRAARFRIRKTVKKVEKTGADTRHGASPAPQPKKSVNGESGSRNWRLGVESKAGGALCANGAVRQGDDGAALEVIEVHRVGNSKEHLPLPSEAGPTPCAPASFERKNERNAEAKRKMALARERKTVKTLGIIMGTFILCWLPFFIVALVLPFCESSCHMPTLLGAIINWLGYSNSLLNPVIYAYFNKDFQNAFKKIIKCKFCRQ

[4] = target: T3, Muscarinic acetylcholine receptor M2 (Homo sapiens, UniProt P08172); assay: as §1, with “CHRM2” for “HTR3A”
T3 sequence (P08172 whole entry): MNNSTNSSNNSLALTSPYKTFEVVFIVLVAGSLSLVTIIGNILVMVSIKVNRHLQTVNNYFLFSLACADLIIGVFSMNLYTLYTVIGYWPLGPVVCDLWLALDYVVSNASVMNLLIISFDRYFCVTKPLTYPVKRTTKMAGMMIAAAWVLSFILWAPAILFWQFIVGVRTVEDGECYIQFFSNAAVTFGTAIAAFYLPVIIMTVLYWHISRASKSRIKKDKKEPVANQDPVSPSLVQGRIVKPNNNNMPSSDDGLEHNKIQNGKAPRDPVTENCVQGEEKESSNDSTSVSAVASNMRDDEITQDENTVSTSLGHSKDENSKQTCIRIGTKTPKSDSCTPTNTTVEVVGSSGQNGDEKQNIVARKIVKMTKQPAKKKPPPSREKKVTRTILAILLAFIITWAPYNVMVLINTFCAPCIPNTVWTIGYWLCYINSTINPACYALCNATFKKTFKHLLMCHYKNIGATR

Histamine H3 receptor = Histamine H3 receptor (Homo sapiens, UniProt Q9Y5N1); assay: as §1, with “HRH3” for “HTR3A”
[5] = target: Beta-2 adrenergic receptor (Homo sapiens, UniProt P07550); assay: as §1, with “ADRB2” for “HTR3A”
[6] = target: T4, Muscarinic acetylcholine receptor M4 (Homo sapiens, UniProt P08173); assay: as §1, with “CHRM4” for “HTR3A”
T4 sequence (P08173 whole entry): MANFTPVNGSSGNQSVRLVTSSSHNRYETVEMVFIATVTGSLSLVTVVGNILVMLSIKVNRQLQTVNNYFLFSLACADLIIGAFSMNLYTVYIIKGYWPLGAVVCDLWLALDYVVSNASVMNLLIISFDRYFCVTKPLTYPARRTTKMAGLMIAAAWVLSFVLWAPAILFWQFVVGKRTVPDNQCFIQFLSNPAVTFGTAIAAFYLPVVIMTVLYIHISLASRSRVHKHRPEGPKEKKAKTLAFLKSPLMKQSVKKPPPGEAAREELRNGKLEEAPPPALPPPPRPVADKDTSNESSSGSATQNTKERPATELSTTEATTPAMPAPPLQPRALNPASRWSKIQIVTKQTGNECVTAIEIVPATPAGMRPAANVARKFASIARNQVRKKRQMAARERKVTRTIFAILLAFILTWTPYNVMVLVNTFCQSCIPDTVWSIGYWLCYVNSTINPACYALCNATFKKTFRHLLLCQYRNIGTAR

[7] = target: Beta-1 adrenergic receptor (Homo sapiens, UniProt P08588); assay: as §1, with “ADRB1” for “HTR3A”
[8] = target: Kappa-type opioid receptor (Homo sapiens, UniProt P41145); assay: as §1, with “OPRK1” for “HTR3A”
Translocator protein = Translocator protein (Homo sapiens, UniProt P30536); assay: as §1, with “TSPO” for “HTR3A”
Histamine H2 receptor = Histamine H2 receptor (Homo sapiens, UniProt P25021); assay: as §1, with “HRH2” for “HTR3A”
Chain of Histamine H2 receptor (P25021 whole entry): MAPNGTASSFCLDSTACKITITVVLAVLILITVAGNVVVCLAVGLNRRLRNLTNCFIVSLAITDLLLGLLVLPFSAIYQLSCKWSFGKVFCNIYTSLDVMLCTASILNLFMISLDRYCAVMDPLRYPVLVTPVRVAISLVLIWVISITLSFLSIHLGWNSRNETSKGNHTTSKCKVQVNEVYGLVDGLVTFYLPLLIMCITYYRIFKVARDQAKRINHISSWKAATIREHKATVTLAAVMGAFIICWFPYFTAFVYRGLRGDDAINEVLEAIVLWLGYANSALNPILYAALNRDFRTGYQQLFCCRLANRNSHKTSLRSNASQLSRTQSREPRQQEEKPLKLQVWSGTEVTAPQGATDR

Chain of Kappa-type opioid receptor (P41145 whole entry): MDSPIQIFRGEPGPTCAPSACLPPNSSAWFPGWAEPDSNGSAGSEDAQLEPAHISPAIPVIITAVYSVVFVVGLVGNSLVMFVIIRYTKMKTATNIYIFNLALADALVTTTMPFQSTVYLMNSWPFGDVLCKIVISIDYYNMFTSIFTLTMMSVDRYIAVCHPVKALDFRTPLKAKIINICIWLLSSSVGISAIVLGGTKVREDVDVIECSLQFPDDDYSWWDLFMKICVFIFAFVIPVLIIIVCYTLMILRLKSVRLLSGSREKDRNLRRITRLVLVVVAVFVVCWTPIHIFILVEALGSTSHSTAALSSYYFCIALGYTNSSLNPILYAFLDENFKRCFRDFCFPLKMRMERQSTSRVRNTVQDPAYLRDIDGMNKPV
Chain of Translocator protein (P30536 whole entry): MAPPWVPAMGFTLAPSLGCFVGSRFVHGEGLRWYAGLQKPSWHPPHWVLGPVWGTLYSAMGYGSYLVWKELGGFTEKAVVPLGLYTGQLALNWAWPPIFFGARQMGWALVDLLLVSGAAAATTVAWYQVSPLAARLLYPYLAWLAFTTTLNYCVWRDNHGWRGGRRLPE
Chain of Histamine H3 receptor (Q9Y5N1 whole entry): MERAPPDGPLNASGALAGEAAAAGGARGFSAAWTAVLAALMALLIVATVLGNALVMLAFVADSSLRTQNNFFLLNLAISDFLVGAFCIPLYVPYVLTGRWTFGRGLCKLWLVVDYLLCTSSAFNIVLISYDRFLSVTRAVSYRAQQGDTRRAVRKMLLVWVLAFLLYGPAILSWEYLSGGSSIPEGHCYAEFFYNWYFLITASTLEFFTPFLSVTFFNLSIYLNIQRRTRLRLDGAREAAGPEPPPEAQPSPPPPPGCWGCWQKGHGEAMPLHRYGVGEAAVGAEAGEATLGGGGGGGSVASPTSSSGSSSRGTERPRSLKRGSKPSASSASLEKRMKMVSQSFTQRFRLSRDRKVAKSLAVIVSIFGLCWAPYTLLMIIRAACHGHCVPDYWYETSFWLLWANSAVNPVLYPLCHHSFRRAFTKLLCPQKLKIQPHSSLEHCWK
Chain of Beta-2 adrenergic receptor (P07550 whole entry): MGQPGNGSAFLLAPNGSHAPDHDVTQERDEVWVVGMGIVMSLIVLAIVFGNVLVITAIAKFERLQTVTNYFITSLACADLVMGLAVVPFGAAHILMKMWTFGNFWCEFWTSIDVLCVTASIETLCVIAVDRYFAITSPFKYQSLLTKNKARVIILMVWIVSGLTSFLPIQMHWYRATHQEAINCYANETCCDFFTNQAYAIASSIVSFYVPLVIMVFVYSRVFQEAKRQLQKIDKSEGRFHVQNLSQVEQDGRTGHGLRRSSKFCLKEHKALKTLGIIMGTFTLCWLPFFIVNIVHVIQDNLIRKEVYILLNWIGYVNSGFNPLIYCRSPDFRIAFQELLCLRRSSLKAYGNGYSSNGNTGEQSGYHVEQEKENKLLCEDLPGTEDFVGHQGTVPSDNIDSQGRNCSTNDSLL
Chain of Beta-3 adrenergic receptor (P13945 whole entry): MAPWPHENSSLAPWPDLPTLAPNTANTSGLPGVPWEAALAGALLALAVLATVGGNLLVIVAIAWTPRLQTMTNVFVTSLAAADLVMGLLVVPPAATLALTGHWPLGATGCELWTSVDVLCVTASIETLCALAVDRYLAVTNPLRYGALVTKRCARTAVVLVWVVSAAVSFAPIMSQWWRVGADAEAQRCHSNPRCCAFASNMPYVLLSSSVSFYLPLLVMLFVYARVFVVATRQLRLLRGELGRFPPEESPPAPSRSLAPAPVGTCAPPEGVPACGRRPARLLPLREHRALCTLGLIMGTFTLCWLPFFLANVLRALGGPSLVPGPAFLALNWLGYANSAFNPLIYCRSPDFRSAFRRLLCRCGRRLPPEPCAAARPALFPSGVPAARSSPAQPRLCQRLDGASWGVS
Chain of Beta-1 adrenergic receptor (P08588 whole entry): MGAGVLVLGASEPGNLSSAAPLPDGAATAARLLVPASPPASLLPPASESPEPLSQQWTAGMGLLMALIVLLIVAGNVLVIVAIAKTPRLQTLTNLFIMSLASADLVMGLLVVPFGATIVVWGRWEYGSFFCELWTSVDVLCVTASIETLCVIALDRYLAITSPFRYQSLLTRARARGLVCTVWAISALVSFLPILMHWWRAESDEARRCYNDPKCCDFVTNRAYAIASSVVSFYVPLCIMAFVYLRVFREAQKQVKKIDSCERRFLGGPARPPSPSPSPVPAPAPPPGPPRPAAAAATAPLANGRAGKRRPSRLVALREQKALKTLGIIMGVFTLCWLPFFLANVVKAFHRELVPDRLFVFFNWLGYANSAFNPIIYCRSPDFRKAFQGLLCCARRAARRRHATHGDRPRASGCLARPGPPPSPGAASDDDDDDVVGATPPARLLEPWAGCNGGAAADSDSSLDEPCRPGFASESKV

Compound: CCCCCNC(=N)N/N=C/c1c[nH]c2ccc(OC)cc12 [TEGASEROD MALEATE]
Ki [1]: 5840 nM
Ki [2]: 4940 nM
Ki [3]: 83.9 nM

Compound: CN1C[C@H](C(=O)N[C@]2(C)O[C@@]3(O)[C@@H]4CCCN4C(=O)[C@H](Cc4ccccc4)N3C2=O)C[C@@H]2c3cccc4[nH]cc(c34)C[C@H]21 [DIHYDROERGOTAMINE MESYLATE]
Ki [3]: 39.1 nM

Compound: C[C@H](Cc1cc2c(c(C(N)=O)c1)N(CCCO)CC2)NCCOc1ccccc1OCC(F)(F)F [SILODOSIN]
Ki [3]: 47 nM
Ki [5]: 32.8 nM

Compound: Clc1cccc(COc2cncc(N3CCNCC3)n2)c1
Ki [1]: 63.7 nM
Ki [7]: 2030 nM
Ki [3]: 7440 nM
Ki [6]: 444 nM

Compound: S=C(NCCCc1c[nH]cn1)NCCCN(Cc1ccc(Cl)c(Cl)c1)c1ccc(Br)cn1
Ki [8]: 1110 nM
Ki (Histamine H3 receptor): 104 nM

Compound: CCc1nn(CCCN2CCN(c3cccc(Cl)c3)CC2)c(=O)n1CCOc1ccccc1 [NEFAZODONE HYDROCHLORIDE]
Ki (Translocator protein): 1990 nM

Compound: Cc1ccc2c(c1)c1c(n2CCc2ccc(C)nc2)CCN(C)C1 [LATREPIRDINE]
Ki (Histamine H2 receptor): 215 nM

Compound: CCc1ccc(OCc2ccccc2C(=O)Nc2ccc3nc(C)cc(N)c3c2)cc1
Ki (Translocator protein): 4010 nM
Ki [2]: 6310 nM
Ki [6]: 1960 nM

Compound: CN(C)C(=O)N[C@H]1CC[C@H](CCN2CCN(c3cccc(Cl)c3Cl)CC2)CC1 [CARIPRAZINE HYDROCHLORIDE]
Ki [7]: 222 nM
Ki [6]: 779 nM

Compound: Cc1c(P(=S)(c2ccccc2)c2ccccc2)n2ccccc2[n+]1C/C=C/c1ccccc1
Ki [8]: 118 nM
Ki [2]: 2050 nM
Ki [4]: 805 nM
Ki (Histamine H2 receptor): 2960 nM
Ki [6]: 854 nM

Compound: N#Cc1ccc2[nH]cc(CCCCN3CCN(c4ccc5oc(C(N)=O)cc5c4)CC3)c2c1 [VILAZODONE HYDROCHLORIDE]
Ki [5]: 2490 nM

Compound: COC(=O)C1=C(C)NC(C)=C(C(=O)OCCCN2CCC(c3ccccc3)(c3ccccc3)CC2)[C@H]1c1cccc([N+](=O)[O-])c1 [NIGULDIPINE]
Ki (Translocator protein): 953 nM
Ki [8]: 347 nM
Ki [3]: 539 nM
Ki (Histamine H3 receptor): 2140 nM

More lines, now with the values ahead:

Ki [4]: 641 nM
Ki (Histamine H3 receptor): 709 nM
Compound: COc1ccc(NC(=O)c2ccc(-c3ccc(-c4noc(C)n4)cc3C)cc2)cc1OCCN(C)C

Ki [6]: 1700 nM
Compound: COc1cc(-n2cnc3cc(-c4ccc(Cl)cc4)sc3c2=O)ccc1OCCN1CCCC1

Ki [8]: 2870 nM
Ki [3]: 518 nM
Compound: O=S1(=O)c2cccc3cccc(c23)N1CCCN1CCN(c2ccc(F)cc2)CC1 [FANANSERIN]

Ki [1]: 1530 nM
Ki [3]: 23.2 nM
Ki (Histamine H3 receptor): 2610 nM
Ki [5]: 969 nM
Compound: O=c1ccc2ccc(OCCCCN3CCN(c4cccc5sccc45)CC3)cc2[nH]1 [BREXPIPRAZOLE]

Ki [2]: > 10000 nM
Compound: CN1CCCC(n2nc(Cc3ccc(Cl)cc3)c3ccccc3c2=O)CC1 (stereo not drawn) [AZELASTINE HYDROCHLORIDE]

Ki [4]: 204 nM
Ki (Histamine H3 receptor): 82.4 nM
Ki [5]: 810 nM
Compound: CN1CCN(c2ccc(Nc3c4ccccc4nc4ccccc34)cc2)CC1

Ki [8]: 1450 nM
Compound: Cc1nc2sccn2c(=O)c1CCN1CCC(=C(c2ccc(F)cc2)c2ccc(F)cc2)CC1 [RITANSERIN]
